Results reported in publication PMC5743599 (Antiviral research, 2017).

Key:
HBV = HBV transgenic mouse model; type: in vivo, hepatitis B virus; conditions: HBV transgenic mice, 100 mg/kg daily IP; data not shown
HBV genotype A = assay: Pilot/preliminary efficacy study in HBV genotype A-infected huFRG KO mice; type: in vivo, hepatitis B virus
[1] = Single and repeat dose maximum tolerated dose studies; type: in vivo, C57Bl/6 mice or huFRG KO mice
HBV genotype C = assay: Primary efficacy study in HBV genotype C-infected huFRG KO mice; type: in vivo, hepatitis B virus
Tolerability = type: in vivo, huFRG KO mice; conditions: for weight recovery after the treatment phase: primary study, post-treatment
[2] = entecavir 1 mg/kg/day PO, Days 59-72, genotype C

Row | SMILES | reduction of intrahepatic DNA accumulation (HBV) | reduction of serum viremia (HBV) | suppression of HBV viremia (average) after one week (HBV genotype A; 50 and 100 mg/kg/day IP, Days 160-173, vs pretreatment Day 159, genotype A) [log] | suppression of HBV viremia at week two (HBV genotype A; 50 and 100 mg/kg/day IP, surviving mice, genotype A) | decrease in HBV titers (trend) in pilot experiment (HBV genotype A; genotype A, #208 treated animals) [log] | Dose-limiting toxicity ([1]; non-infected mice, IP) | maximum tolerated dose (MTD) ([1]; single and repeat IP injections up to seven days, male C57Bl/6 or huFRG KO mice) [mg/kg] | decrease in HBV titers after one week compared to control mice (HBV genotype C; 100 mg/kg/day IP, genotype C) [log] | decrease in HBV titers after two weeks of dosing compared to control mice (HBV genotype C; 100 mg/kg/day IP, genotype C) [log] | deaths / moribundity in post-dosing phase of primary study (Tolerability; Day 87-88, one animal per group, not with certainty test article-related) | weight recovery after the treatment phase (Tolerability) | Viral titers rebounded to pretreatment levels by Day (HBV genotype A; after entecavir withdrawal (treatment days 71-84), genotype A) [days] | drop in HBV titers more than the control animals (HBV genotype A; entecavir 1.0 mg/kg PO two weeks, Days 70 to 85, genotype A, plasma) [log] | decrease in HBV titers after one week of treatment (HBV genotype C; [2]) [log] | decrease in HBV titers after two weeks (HBV genotype C; [2]) [log]
1 | CC(=Nc1ccccc1N)c1c(C)cc(=O)n(O)c1O [#208] | failed to reduce | failed to reduce | 1.1 | sustained | ~1 | >10% weight loss, hypoactivity, unkempt appearance, feeling cool-to-touch, and distended abdomen | 100 | 1.6 | 1.4 | found dead | some weight gain occurred |  |  |  | 
2 | C=C1[C@H](CO)[C@@H](O)C[C@@H]1n1cnc2c(=O)[nH]c(N)nc21 [entecavir, Entecavir, reference compound] |  |  |  |  |  |  |  |  |  |  | some weight gain occurred | ≤ 159 | 2.8 | 2.6 | 3.2
